Laboratory results published in ChEMBL document CHEMBL1201862, “PubChem BioAssay data set” (2004).
Values belong to the molecule of their own block, whether it stands above or below them. The source made the active and inactive calls.

Legend:
[1] = biological target: Serine/threonine-protein kinase PLK3 (Homo sapiens, UniProt Q9H4B4); assay type: functional
[2] = biological target: Protein kinase C delta type (Homo sapiens, UniProt Q05655); assay type: functional
[3] = biological target: Cyclin-dependent kinase 2 (Homo sapiens, UniProt P24941); assay type: functional;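 also: CDK2 measured as one member of a broad kinome profiling panel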
[4] = biological target: Aurora kinase A (Homo sapiens, UniProt O14965); assay type: functional;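 also: value from the Navigating the Kinome kinase panel profiling, panel entry STK6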
[5] = biological target: MAP kinase-activated protein kinase 2 (Homo sapiens, UniProt P49137); assay type: functional;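 also: measured as one member of a kinome-wide kinase panel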
[6] = biological target: Casein kinase II subunit alpha (Homo sapiens, UniProt P68400); assay type: functional
[7] = biological target: Fibroblast growth factor receptor 1 (Homo sapiens, UniProt P11362); assay type: functional
[8] = biological target: Protein kinase C gamma type (Homo sapiens, UniProt P05129); assay type: functional
[9] = biological target: Inhibitor of nuclear factor kappa-B kinase subunit alpha (Homo sapiens, UniProt O15111); assay type: functional
[10] = biological target: Receptor-type tyrosine-protein kinase FLT3 (Homo sapiens, UniProt P36888); assay type: functional;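 also: FLT3 was tested as one member of a kinome-wide kinase panel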
[11] = biological target: Interleukin-1 receptor-associated kinase 4 (Homo sapiens, UniProt Q9NWZ3); assay type: functional
[12] = biological target: RAC-alpha serine/threonine-protein kinase (Homo sapiens, UniProt P31749); assay type: functional;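 also: AKT1 affinity measured as one member of a kinome-wide kinase profiling panel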
[13] = biological target: Calcium/calmodulin-dependent protein kinase type 1 (Homo sapiens, UniProt Q14012); assay type: functional
[14] = biological target: 3-phosphoinositide-dependent protein kinase 1 (Homo sapiens, UniProt O15530); assay type: functional;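 also: value comes from the Navigating the Kinome panel, PDPK1 member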
[15] = biological target: Serine/threonine-protein kinase PLK1 (Homo sapiens, UniProt P53350); assay type: functional;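 also: PLK1 measured as one member of a kinome-wide profiling panel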
[16] = biological target: BDNF/NT-3 growth factors receptor (Homo sapiens, UniProt Q16620); assay type: functional;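 also: NTRK2 measured as one member of a broad kinome-wide kinase profiling panel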
[17] = biological target: cAMP-dependent protein kinase catalytic subunit alpha (Homo sapiens, UniProt P17612); assay type: functional
[18] = viability of PTEN-deleted HCT116 cells – cell-based, HCT116 PTEN knockout, dose response (AID 1047); assay type: functional;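 also: HCT116 colon tumor cells with PTEN knocked out; cells exposed to compound for 60 hours before readout; potency for loss of cell viability measured by luminescence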
[19] = biological target: RNA-editing ligase 1, mitochondrial (Trypanosoma brucei brucei, UniProt P86926); assay: inhibition of trypanosome RNA editing ligase – biochemical, fluorescence, Trypanosoma brucei, dose response (AID 1117295); assay type: functional
[20] = protection from phage-mediated lysis, alamar blue read-out – E. coli UTI89, K1F phage, bacterial capsule biogenesis inhibitors (AID 488966); assay type: functional
[21] = biological target: T1, Bcl-2-related protein A1 (Mus musculus, UniProt Q07440); assay type: functional;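 also: confirmatory dose–response counterscreen on Bfl-1, used to check hits from a UBC13 polyubiquitin inhibitor campaign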
T1 sequence (Q07440 whole entry): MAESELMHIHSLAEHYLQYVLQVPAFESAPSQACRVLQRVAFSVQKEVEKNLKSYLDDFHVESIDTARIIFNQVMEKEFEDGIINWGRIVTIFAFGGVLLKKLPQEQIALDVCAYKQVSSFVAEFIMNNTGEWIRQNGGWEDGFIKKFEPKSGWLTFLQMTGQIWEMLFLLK

[22] = biological target: T2, Ubiquitin-conjugating enzyme E2 N (Homo sapiens, UniProt P61088); assay type: functional;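 also: Dose-response confirmation in a TR-FRET assay detecting UBC13-driven polyubiquitin chain formation, inhibition measured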
T2 sequence (P61088 whole entry): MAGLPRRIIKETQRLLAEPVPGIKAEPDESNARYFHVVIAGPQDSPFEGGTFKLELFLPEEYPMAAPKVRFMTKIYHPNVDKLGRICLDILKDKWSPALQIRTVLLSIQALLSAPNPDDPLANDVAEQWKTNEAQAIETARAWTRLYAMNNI

[23] = toxicity toward cultured mammalian cells – cell-based, plate reader, cherry-pick samples, cytotoxicity control, dose response (AID 504397); assay type: functional
[24] = test system: BJ; assay: growth inhibition of engineered Ras-driven BJ cells – cell-based, alamar blue fluorescence, cherrypicked samples, dose response (AID 2631); assay type: functional; conditions: Homo sapiens;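 also: confirmatory dose-response assay in RAS-dependent BJ fibroblasts engineered with TERT, LT and ST, with cytotoxicity read by fluorescence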
[25] = biological target: T3, Insulin-degrading enzyme (Homo sapiens, UniProt P14735); assay: cellular IDE activation of Abeta substrate cleavage – fluorescence polarization, HEK cells, dose response (AID 588439); assay type: functional, cell-based
T3 sequence (P14735 whole entry): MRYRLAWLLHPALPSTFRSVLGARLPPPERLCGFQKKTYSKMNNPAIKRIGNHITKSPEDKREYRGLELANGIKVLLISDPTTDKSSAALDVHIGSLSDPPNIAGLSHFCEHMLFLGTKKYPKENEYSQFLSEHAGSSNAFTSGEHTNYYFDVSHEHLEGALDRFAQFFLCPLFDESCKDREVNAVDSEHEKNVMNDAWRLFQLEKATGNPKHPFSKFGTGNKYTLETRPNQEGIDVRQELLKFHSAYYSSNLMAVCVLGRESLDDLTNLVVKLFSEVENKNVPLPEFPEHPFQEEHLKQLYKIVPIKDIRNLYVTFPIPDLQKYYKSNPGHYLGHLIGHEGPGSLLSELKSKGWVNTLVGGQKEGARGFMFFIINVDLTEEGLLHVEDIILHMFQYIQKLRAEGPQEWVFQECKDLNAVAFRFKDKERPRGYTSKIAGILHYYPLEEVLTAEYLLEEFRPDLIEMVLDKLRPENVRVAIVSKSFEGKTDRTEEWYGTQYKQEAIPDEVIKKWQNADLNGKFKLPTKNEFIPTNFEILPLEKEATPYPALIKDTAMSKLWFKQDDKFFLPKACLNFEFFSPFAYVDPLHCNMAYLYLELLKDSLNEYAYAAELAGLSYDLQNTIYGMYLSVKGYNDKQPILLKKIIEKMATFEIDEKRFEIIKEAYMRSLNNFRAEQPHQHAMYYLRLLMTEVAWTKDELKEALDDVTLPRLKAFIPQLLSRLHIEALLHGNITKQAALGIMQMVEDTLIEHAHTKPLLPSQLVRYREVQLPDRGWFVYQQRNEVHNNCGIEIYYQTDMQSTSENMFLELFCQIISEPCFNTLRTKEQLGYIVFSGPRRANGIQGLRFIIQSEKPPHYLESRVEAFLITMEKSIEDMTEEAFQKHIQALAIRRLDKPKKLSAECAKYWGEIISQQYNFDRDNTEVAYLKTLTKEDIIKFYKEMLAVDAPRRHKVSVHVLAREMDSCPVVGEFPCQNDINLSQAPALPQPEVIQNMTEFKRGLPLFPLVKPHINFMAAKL

[26] = test system: HEK293; assay: optical interference in Abeta FP readout, dose response, artefact control for IDE activator project, biochemical, fluorescence polarization (AID 588442); assay type: functional, cell-based; conditions: Homo sapiens
[27] = biological target: Small ubiquitin-related modifier 1 (Homo sapiens, UniProt P63165); assay: SUMO1 protein-protein binding blockers, potency – biochemical, FRET, dose response (AID 624383); assay type: functional; conditions: read-out: IC50_Mean
[28] = viability loss in HeLa cells – cytotoxicity control for MgcRacGAP inhibitor project, dose response (AID 624300); assay type: functional

Sequence of Protein kinase C delta type (Q05655 whole entry): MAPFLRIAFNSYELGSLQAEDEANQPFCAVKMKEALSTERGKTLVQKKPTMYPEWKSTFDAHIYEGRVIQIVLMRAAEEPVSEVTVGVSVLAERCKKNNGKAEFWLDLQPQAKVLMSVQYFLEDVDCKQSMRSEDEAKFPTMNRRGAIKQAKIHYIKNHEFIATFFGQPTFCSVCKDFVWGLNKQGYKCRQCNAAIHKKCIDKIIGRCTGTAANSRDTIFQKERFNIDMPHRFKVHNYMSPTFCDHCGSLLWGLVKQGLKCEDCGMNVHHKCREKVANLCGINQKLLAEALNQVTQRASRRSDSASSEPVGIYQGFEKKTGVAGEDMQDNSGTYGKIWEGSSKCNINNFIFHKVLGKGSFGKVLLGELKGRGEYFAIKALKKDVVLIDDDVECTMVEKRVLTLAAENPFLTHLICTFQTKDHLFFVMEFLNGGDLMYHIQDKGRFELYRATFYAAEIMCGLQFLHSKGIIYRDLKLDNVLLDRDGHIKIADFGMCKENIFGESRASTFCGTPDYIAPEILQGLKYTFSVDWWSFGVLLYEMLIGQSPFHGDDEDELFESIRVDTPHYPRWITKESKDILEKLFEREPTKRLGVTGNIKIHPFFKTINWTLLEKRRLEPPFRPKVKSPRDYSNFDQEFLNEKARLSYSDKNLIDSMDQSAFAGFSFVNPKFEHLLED
Sequence of Small ubiquitin-related modifier 1 (P63165 whole entry): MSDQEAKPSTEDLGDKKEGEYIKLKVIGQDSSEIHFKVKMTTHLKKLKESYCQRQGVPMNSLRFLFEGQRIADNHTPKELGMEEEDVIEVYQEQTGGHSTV
Sequence of 3-phosphoinositide-dependent protein kinase 1 (O15530 whole entry): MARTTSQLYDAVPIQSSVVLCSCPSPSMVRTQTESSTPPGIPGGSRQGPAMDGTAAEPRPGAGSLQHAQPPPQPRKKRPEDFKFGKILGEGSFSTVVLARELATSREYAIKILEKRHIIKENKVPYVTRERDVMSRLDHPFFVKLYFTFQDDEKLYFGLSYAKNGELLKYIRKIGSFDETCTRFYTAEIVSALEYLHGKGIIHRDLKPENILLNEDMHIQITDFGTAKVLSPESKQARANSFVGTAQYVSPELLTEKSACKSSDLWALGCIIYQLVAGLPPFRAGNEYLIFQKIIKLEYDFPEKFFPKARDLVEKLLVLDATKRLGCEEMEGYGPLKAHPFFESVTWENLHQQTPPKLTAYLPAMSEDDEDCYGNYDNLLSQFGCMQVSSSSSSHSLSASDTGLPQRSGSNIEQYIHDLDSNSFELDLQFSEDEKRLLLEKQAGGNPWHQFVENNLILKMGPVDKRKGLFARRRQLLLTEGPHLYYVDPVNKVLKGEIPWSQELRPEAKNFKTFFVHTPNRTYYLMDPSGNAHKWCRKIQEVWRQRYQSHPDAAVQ
Sequence of BDNF/NT-3 growth factors receptor (Q16620 whole entry): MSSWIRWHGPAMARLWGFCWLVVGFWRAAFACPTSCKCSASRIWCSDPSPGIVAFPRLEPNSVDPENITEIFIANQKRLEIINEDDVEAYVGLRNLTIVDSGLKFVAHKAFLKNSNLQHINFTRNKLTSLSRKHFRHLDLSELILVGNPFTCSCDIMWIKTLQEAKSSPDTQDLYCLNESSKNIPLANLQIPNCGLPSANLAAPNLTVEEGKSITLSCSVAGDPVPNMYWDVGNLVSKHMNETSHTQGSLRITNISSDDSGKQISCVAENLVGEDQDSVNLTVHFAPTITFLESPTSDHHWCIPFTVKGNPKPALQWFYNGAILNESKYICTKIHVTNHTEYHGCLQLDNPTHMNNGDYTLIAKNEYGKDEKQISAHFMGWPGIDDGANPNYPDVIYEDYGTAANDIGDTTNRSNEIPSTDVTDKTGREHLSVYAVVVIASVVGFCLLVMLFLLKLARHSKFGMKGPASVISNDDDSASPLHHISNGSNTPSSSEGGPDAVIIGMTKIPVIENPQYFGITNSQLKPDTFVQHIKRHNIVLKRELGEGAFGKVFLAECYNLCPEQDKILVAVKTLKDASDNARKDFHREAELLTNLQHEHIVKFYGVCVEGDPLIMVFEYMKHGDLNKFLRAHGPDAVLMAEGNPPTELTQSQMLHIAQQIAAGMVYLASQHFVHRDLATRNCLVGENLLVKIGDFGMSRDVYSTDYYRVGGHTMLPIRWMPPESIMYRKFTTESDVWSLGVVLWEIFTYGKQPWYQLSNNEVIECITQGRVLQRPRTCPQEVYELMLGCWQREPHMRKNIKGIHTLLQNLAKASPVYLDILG
Sequence of Serine/threonine-protein kinase PLK1 (P53350 whole entry): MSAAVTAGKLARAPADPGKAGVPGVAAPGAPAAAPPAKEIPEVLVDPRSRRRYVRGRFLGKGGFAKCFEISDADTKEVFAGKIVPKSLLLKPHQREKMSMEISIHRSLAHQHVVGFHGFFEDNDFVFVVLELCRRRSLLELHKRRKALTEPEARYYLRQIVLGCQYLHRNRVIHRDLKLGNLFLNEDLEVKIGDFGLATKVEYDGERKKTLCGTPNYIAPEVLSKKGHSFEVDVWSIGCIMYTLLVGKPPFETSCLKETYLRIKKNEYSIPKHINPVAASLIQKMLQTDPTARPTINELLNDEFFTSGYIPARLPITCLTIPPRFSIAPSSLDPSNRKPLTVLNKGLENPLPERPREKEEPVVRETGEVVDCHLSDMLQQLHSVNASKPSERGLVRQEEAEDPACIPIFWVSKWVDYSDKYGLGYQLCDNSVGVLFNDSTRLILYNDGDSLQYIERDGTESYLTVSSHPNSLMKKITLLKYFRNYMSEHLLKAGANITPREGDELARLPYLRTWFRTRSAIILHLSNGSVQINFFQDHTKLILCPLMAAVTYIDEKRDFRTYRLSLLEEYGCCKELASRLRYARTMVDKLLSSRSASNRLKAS
Sequence of Interleukin-1 receptor-associated kinase 4 (Q9NWZ3 whole entry): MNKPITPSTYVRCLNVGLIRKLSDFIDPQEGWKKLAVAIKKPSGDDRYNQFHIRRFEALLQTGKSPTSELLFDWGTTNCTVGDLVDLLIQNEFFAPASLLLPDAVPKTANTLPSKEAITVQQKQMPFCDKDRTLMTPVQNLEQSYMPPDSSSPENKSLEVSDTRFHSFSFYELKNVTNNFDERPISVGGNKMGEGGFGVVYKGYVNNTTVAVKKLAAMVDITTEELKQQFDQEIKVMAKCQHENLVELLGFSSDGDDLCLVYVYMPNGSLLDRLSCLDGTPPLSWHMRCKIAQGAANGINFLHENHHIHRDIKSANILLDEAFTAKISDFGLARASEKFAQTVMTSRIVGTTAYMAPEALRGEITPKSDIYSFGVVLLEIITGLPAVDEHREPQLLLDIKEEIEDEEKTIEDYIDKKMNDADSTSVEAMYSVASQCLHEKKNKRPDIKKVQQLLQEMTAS
Sequence of RAC-alpha serine/threonine-protein kinase (P31749 whole entry): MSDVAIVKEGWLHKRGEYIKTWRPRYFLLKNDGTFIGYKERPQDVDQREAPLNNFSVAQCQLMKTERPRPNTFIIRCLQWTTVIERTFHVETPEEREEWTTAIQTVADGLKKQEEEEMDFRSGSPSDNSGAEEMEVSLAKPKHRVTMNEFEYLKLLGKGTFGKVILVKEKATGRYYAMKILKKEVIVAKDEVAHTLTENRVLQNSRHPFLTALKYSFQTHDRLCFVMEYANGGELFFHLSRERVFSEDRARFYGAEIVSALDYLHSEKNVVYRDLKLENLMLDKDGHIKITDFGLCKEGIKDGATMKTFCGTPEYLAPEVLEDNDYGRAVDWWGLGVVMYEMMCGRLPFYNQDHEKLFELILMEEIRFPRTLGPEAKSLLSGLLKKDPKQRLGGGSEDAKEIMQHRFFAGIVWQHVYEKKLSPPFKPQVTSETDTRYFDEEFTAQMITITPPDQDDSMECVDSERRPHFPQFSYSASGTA
Sequence of Receptor-type tyrosine-protein kinase FLT3 (P36888 whole entry): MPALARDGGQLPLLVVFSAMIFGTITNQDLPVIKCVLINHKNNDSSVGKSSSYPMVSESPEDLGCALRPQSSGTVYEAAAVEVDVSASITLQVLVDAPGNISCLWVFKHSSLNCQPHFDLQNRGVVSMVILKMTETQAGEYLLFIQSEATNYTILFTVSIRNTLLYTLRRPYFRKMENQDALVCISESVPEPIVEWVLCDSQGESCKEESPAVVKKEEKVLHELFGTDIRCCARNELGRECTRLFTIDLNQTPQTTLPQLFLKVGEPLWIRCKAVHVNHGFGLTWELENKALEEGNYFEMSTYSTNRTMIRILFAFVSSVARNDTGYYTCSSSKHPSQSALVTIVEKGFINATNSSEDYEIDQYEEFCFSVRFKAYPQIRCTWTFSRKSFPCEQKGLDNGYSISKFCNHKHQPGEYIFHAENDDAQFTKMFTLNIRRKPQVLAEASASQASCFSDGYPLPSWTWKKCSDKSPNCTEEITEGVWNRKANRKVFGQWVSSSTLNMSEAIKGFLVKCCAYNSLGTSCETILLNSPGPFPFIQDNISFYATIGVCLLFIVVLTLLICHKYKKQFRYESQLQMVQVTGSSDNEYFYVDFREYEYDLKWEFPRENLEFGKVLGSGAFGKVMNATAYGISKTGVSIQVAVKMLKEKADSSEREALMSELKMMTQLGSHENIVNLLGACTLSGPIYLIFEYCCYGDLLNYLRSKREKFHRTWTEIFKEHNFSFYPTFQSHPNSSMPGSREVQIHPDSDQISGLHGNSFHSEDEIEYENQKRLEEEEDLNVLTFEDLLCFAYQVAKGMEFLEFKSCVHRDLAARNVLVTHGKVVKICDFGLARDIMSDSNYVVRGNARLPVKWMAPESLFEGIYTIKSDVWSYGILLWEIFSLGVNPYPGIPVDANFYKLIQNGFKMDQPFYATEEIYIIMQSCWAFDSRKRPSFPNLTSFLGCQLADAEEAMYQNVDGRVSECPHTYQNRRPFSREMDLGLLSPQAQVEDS

Ki [1]: 6.31 µM (active)
Ki [2]: 0.316 µM (active)
Ki [3]: 0.501 µM (active)
Ki [4]: 5.01 µM (active)
Ki [5]: 0.631 µM (active)
Ki [6]: > 6.31 µM (inactive)
Ki [7]: > 5.01 µM (inactive)
Ki [8]: 0.631 µM (active)
Ki [9]: 0.501 µM (active)
Ki [10]: 2 µM (active)
Ki [11]: 1.58 µM (active)
Ki [12]: 0.398 µM (active)
Ki [13]: 3.16 µM (active)
Ki [14]: > 3.98 µM (inactive)
Ki [15]: > 7.94 µM (inactive)
Ki [16]: > 5.01 µM (inactive)
Ki [17]: > 7.94 µM (inactive)
SMILES: CC(=NNC(=N)N)c1cc(NC(=O)NCCCCCCNC(=O)Nc2cc(C(C)=NNC(=N)N)cc(C(C)=NNC(=N)N)c2)cc(C(C)=NNC(=N)N)c1

SMILES: CCC(C)NC(=O)c1c(N)n(CCCOC)c2nc3ccccc3nc12 (stereo not drawn)
EC50 [18]: 33.2 µM (active)
IC50 [19]: 15.1 µM (inactive)

SMILES: Cc1cc(N)c2cc(NC(=O)/C=C/c3ccccc3Cl)ccc2n1
IC50 [20]: > 75 µM (active)
IC50 [21]: 18.2 µM (active)
IC50 [22]: 3.5 µM (active)
AC50 [23]: 4.26 µM (active)
EC50 [24]: 0.704 µM (inconclusive)
EC50 [25]: > 54.7 µM (inactive)
EC50 [26]: > 54.7 µM (inactive)
IC50 [27]: 7.51 µM (active)
CC50 [28]: 5.35 µM (active)
